In PubChem BioAssay AID2765 (Broad Institute, 2010):
pEC50: −log10 of the molar value. Activity calls are given as the source filed them.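 The calls were made as follows: active = half-maximal concentration for the rise in caspase light signal at or below ten times the top tested dose; inconclusive = flat fit between 30% and 70% activity, or unreliable curve fit; inactive = the rest.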

Each compound was assayed on MEF A1-2A-BIM cells, caspase 3/7 luminescence, 3 h (assay: caspase activation in A1-2A-BIM MEF cells, dose response, A1 inhibitor project, cell-based, luminescence, retest (AID 2765)).

SMILES | EC50 | pEC50
CC(=O)Nc1ccc(C(=O)CN2C(=O)NC3(CCCc4ccccc43)C2=O)c(F)c1 (stereo not given) | > 35 µM (inactive) | –
Cc1ccc(CCC(=O)Nc2ccc(Br)cc2)o1 | > 35 µM (inactive) | –
CC(C)(C)N(Cc1ccccc1)C(=O)COC(=O)CNC(=O)c1ccco1 | > 35 µM (inactive) | –
CC(=O)Oc1ccccc1C(=O)Oc1ccccc1C(=O)O | > 35 µM (inactive) | –
O=C(NCc1ccc2c(c1)OCO2)C1CCN(c2ncccn2)CC1 | > 35 µM (inactive) | –
C#CC(=O)N(c1cc(OC)ccc1OC)C(C(=O)NC1CCCC1)c1cccs1 (stereo not given) | > 35 µM (inactive) | –
COc1ccc(S(=O)(=O)N(C)C[C@H]2Oc3ccc(NC(=O)Nc4c(C)noc4C)cc3C(=O)N([C@H](C)CO)C[C@@H]2C)cc1 | > 35 µM (inactive) | –
Cc1cc(S(=O)(=O)N2CCCOC2CNC(=O)C(=O)NCc2ccco2)ccc1F (stereo not given) | > 35 µM (inactive) | –
O=C(N/N=C/c1ccc(Cl)cc1Cl)c1ccc2nc[nH]c2c1 | > 35 µM (inactive) | –
COc1ccc(NC(=O)/C=C/C(=O)O)c([N+](=O)[O-])c1 | > 35 µM (inactive) | –
O=C(N/C=N/OCc1ccc(Cl)cc1Cl)NOCc1ncc(C(F)(F)F)cc1Cl | > 35 µM (inactive) | –
COc1ccc(C=C2C=C(C(C)(C)C)C(=O)C(C(C)(C)C)=C2)cc1OC | – | 5.24
O=C(O)Cc1ccc(NC(=O)C(c2ccccc2)c2ccccc2)cc1 | > 35 µM (inactive) | –
O=C(c1cc2sccc2n1Cc1ccc(F)cc1)N1CCCc2ccccc21 | > 35 µM (inactive) | –
O=C(Oc1cccc(/C=N/Nc2nc(Nc3ccccc3)nc(N3CCOCC3)n2)c1)c1ccco1 | > 35 µM (inactive) | –
CCS(=O)(=O)c1nc2ccccc2n1Cc1ccccc1Cl | > 35 µM (inactive) | –
CC(C)OC(=O)CN1C(=O)S/C(=C/c2ccc(N3CCCCC3)o2)C1=O | > 35 µM (inactive) | –
COc1ccc(CNS(=O)(=O)c2ccccc2Br)cc1 | > 35 µM (inactive) | –
CCN(CC(=O)Nc1c(F)cccc1F)C(=O)/C=C/c1ccc(C)cc1 | > 35 µM (inactive) | –
COc1ccc(S(=O)(=O)Nc2c(NC3CCCCC3)c3ccccc3oc2=O)cc1OC | > 35 µM (inactive) | –
O=S1(=O)C=C(Sc2nnc(-c3ccccc3)o2)c2ccccc21 | > 35 µM (inactive) | –
O=C(CN1C(=O)c2ccccc2S1(=O)=O)NCCc1ccccc1 | > 35 µM (inactive) | –
COc1cc(/C=C(/C#N)c2nc3ccccc3[nH]2)ccc1OCC(=O)Nc1ccccc1C(C)C | – | 4.84
COc1ccc(-c2nn(-c3ccccc3)cc2/C=C/C(=O)OCC(=O)Nc2ccccc2C#N)cc1 | – | 4.67

SMILES | EC50 | pEC50
O=C1N/C(=C/c2ccc(N3CCOCC3)o2)C(=O)N1c1cccc(Cl)c1 | > 35 µM (inactive) | –
O=C(Cc1ccc(-n2cccc2)cc1)NC1CCCCC1 | > 35 µM (inactive) | –
C[C@H](CO)N1C[C@H](C)[C@@H](CN(C)CC2CCCCC2)Oc2c(NS(=O)(=O)c3cccs3)cccc2C1=O | > 35 µM (inactive) | –
COc1ccc(NC(=O)/C(Cl)=C(/Cl)S(=O)Cc2ccc(C)cc2)cn1 (stereo not given) | > 35 µM (inactive) | –
O=C(NCCOC(=O)c1ccc(Cl)c(S(=O)(=O)N2CCCCC2)c1)c1ccncc1 | > 35 µM (inactive) | –
CC1Cc2cc(/C(O)=C3/C(=O)C(=O)N(Cc4cccnc4)C3c3cccc(O)c3)ccc2O1 (stereo not given) | > 35 µM (inactive) | –
Cc1ccc(N2CCN(C(=S)Nc3ccccc3C)CC2)cc1 | > 35 µM (inactive) | –
CCN(CC)S(=O)(=O)c1cc(C(=O)Nc2ccccc2[N+](=O)[O-])ccc1Cl | > 35 µM (inactive) | –
Cc1nc(SCc2nc3c([N+](=O)[O-])cccc3[nH]2)c2oc3ccccc3c2n1 | > 35 µM (inactive) | –
COCCN(C(=O)CSc1nc2ccccc2c(=O)n1C(C)COC)c1c(N)n(Cc2ccccc2)c(=O)[nH]c1=O (stereo not given) | > 35 µM (inactive) | –
CC1CC(C)CN(C(=O)CCCn2c(=S)[nH]c3ccccc3c2=O)C1 (stereo not given) | > 35 µM (inactive) | –
Cc1c(C(=O)O)sc2nc(-c3cccs3)cc(C(F)(F)F)c12 | > 35 µM (inactive) | –
Cc1cc(C)n(-c2ccc(NC(=O)C3CCN(Cc4ccc(C)o4)CC3)cc2)n1 | > 35 µM (inactive) | –
O=C(CCNc1n[nH]c(=O)[nH]c1=O)N/N=C/c1ccc(C(F)(F)F)cc1 | > 35 µM (inactive) | –
CCOc1ccc(-n2c(SCC(=O)Nc3ccc(Br)cc3)nc3n[nH]c(C)c3c2=N)cc1 | – | 4.67
Cc1ncc([N+](=O)[O-])n1Cc1cccc2ccccc12 | > 35 µM (inactive) | –
O=C1C(Cc2ccccc2)SC(=Nc2ccccc2)N1c1ccccc1 (stereo not given) | > 35 µM (inactive) | –
CCCN1CCN(CCCNC(=O)CCCn2nc(C)c3sc4ccccc4c3c2=O)CC1 | > 35 µM (inactive) | –
CC(=O)OC(C)(C)/C=C/C(=O)C(C)(O)C1[C@H](O)C[C@@]2(C)C3CC=C4C(CC[C@@H](O)C4(C)C)[C@]3(CO)C(=O)C[C@]12C (stereo not given in full) | > 35 µM (inactive) | –
CC(C)[C@H](NS(=O)(=O)c1ccccc1F)C(=O)OCC(=O)Nc1cccc(S(N)(=O)=O)c1 | > 35 µM (inactive) | –
CCOc1ccc(-c2ccc(NS(=O)(=O)c3ccc([N+](=O)[O-])cc3)cc2)nn1 | > 35 µM (inactive) | –
Cc1occc1-c1nnc(SCC(=O)NCCc2ccccc2)n1Cc1ccccc1 | > 35 µM (inactive) | –
O=C(Nc1nc2c(Br)cc(Br)cc2c(=O)s1)c1ccco1 | > 35 µM (inactive) | –
CCN(C(=O)CSc1nc2ccccc2n1CC)C1CCS(=O)(=O)C1 (stereo not given) | > 35 µM (inactive) | –

SMILES | EC50 | pEC50
Cc1cccc(NC(=S)N(Cc2cccc(Br)c2)CC2CCC(C(=O)O)CC2)c1 (stereo not given) | > 35 µM (inactive) | –
O=C(Nc1ccc(Br)cc1C(=O)O)c1ccc2c(c1)C(=O)N(Cc1ccccc1)C2=O | > 35 µM (inactive) | –
CCn1c(SCC(=O)c2ccccc2)nnc1-c1cc2cc(Br)ccc2o1 | > 35 µM (inactive) | –
C=C1CCc2c([nH]c3ccc(OCC(C)C)cc23)C1=O | – | 4.82
O=C1NCCCC1C(=O)N/N=C/c1cccc([N+](=O)[O-])c1 (stereo not given) | > 35 µM (inactive) | –
Cc1cc(=O)[nH]c(SCC(=O)Nc2ccc(Br)cc2)c1C#N | > 35 µM (inactive) | –
Cc1ccc(/C=C/C(=O)Nc2sc(C)c(C)c2C(=O)OC(C)C)o1 | > 35 µM (inactive) | –
Cc1ccc(NC(=O)CSc2nc3nc(C)c(Br)cc3[nH]2)cc1F | > 35 µM (inactive) | –
Cc1ccc(C)c(NC(=S)NC(NC(=O)Cc2cccc3ccccc23)C(Cl)(Cl)Cl)c1 (stereo not given) | – | 5.23
COc1c(Br)cc([N+](=O)[O-])c(OC)c1C(=O)NC(=O)Nc1nc(C)cc(C)n1 | > 35 µM (inactive) | –
O=C(Nc1ccc([N+](=O)[O-])cn1)c1cc(-c2cccc(Br)c2)nc2ccccc12 | > 35 µM (inactive) | –
CSc1nnc(-c2cc3c(-c4ccccc4)nn(C)c3s2)n1C | > 35 µM (inactive) | –
COc1ccc(C[C@H]2NC[C@H](O)[C@H]2OC(C)=O)cc1 | > 35 µM (inactive) | –
Cc1ccc(NC(=S)N(CCCN2CCCC2)Cc2cccn2Cc2ccc(Cl)cc2)cc1Cl | > 35 µM (inactive) | –
COc1ccc(NC(=O)CN2CCN(CC(=O)Nc3ccccc3Cl)CC2)cc1Cl | > 35 µM (inactive) | –
COc1ccc(Nc2cc3n(c(=O)n2)CCc2cc(OC)c(OC)cc2-3)c(C)c1 | > 35 µM (inactive) | –
CC(C)c1nnc(NC(=O)COC(=O)/C=C/c2ccc([N+](=O)[O-])cc2)s1 | > 35 µM (inactive) | –
Cc1ccc(NC(=O)CSc2nnc(C)n2-c2ccccc2)cc1 | > 35 µM (inactive) | –
Cc1ccc(-c2nc(NC(=O)c3nn(C)cc3[N+](=O)[O-])sc2C)cc1 | – | 5.01
Cc1ccc(N=C2C(=O)Nc3ccc(C)c(Br)c32)cc1 | > 35 µM (inactive) | –
CC1CCc2c(sc3nc(C(C)(C)C)nc(N4CCN(C(=O)CCl)CC4)c23)C1 (stereo not given) | – | 4.81
COc1ccc(CCNC(=O)C2CCCN2C(=O)Nc2ccc(Cl)cc2)cc1OC (stereo not given) | > 35 µM (inactive) | –
Cc1ccc(CCNC(=O)c2cc(-c3ccncc3)nc3ccc(S(=O)(=O)N4CCOCC4)cc23)cc1 | > 35 µM (inactive) | –
Cc1noc(C)c1CSCC(=O)N(C)CC(=O)Nc1ccc(Cl)c(Cl)c1 | > 35 µM (inactive) | –

SMILES | EC50 | pEC50
Cc1ccc(C(=O)/C=C/C(=O)c2ccc(C)cc2)cc1 | – | 4.71
O=C1N(S(=O)(=O)c2ccccc2F)C(=O)C2(CCCC2)N1S(=O)(=O)c1ccccc1F | > 35 µM (inactive) | –
Cc1ccc(-n2nc3c(=O)n(CC(=O)NCCC4=CCCCC4)nc(C)c3c2C)cc1 | > 35 µM (inactive) | –
CCc1nn(-c2cc(Oc3cccc4ccccc34)nc(-c3ccccc3)n2)c(N)c1C#N | > 35 µM (inactive) | –
COc1cc2sc3ccc(C#Cc4ccc(N)cc4)cc3c(=O)c2cc1OC | > 35 µM (inactive) | –
Cc1ccc2c(c1)c(C1=c3ccccc3=NC1=O)c(O)n2C | > 35 µM (inactive) | –
NC(=O)c1ccc[n+](CC(=O)NCc2ccc(Cl)cc2)c1 | > 35 µM (inactive) | –
COc1ccc(CNCc2ccc([N+](=O)[O-])cc2)cc1OC | > 35 µM (inactive) | –
COc1cc(S(=O)(=O)Nc2ccncc2)ccc1F | > 35 µM (inactive) | –
Cc1ccc(NC(=O)CN(C)S(=O)(=O)c2cnc[nH]2)c(C)c1 | > 35 µM (inactive) | –
CCCCCCC(=O)Nc1cc2c(C)cc(=O)oc2cc1C | > 35 µM (inactive) | –
COc1ccccc1CC(=O)N1CCOCC1 | > 35 µM (inactive) | –
CCOc1nc2c(c(-c3cccs3)c1C#N)Cc1ccccc1-2 | > 35 µM (inactive) | –
COc1ccc(CN2CCCCC2C)cc1C (stereo not given) | > 35 µM (inactive) | –
O=[N+]([O-])c1ccc(CN2CCOCCOCCOCC2)cc1 | > 35 µM (inactive) | –
COc1ccc(CN2CCN(Cc3cc4ccccc4o3)CC2CCO)c(F)c1 (stereo not given) | > 35 µM (inactive) | –
COc1cc(/C=C(/C#N)c2nc3ccccc3[nH]2)ccc1OCC(=O)Nc1ccccc1C | – | 5.37
N#C/C(=C\c1ccc(OCc2ccccc2)cc1)C(=O)Nc1nc2c(s1)CCN(Cc1ccccc1)C2 | > 35 µM (inactive) | –
Cc1ccc(N=C2C(=O)Nc3ccccc32)cc1 | > 35 µM (inactive) | –
CC1=NNC(=O)/C1=C\c1cn(-c2ccccc2)nc1-c1cccs1 | – | 4.82
O=C(CNC(=O)c1ccc(Br)cc1)NC1CC1 | > 35 µM (inactive) | –
COc1ccc(CCNC(=O)COC(=O)c2cnc(Cl)c(Cl)c2)cc1 | > 35 µM (inactive) | –
COc1ccc2sc(N(CCCN(C)C)C(=O)c3ccc(S(=O)(=O)N4CCc5ccccc5C4)cc3)nc2c1 | – | 4.53
